Results taken from ChEMBL document CHEMBL1140059, “Discovery of potent and selective small-molecule PAR-2 agonists” (J Med Chem, 2008).
The source made the active and inactive calls. No cut-off for these calls is given here. Square brackets hold non-standard residues; d marks the D form. Peptide text beside a SMILES is read from it. * marks the point of attachment. Orn = NCCC[C@H](N)C(=O)O; 2Furoyl = O=C(c1ccco1)*

Key:
[1] = target: T1, Proteinase-activated receptor 2 (Homo sapiens, UniProt P55085); test: Agonist activity at human PAR2 expressed in HEK293T cells assessed as effect on intracellular calcium mobilization by R-SAT assay; assay type: functional, cell-based, HEK-293T
T1 sequence (P55085 whole entry): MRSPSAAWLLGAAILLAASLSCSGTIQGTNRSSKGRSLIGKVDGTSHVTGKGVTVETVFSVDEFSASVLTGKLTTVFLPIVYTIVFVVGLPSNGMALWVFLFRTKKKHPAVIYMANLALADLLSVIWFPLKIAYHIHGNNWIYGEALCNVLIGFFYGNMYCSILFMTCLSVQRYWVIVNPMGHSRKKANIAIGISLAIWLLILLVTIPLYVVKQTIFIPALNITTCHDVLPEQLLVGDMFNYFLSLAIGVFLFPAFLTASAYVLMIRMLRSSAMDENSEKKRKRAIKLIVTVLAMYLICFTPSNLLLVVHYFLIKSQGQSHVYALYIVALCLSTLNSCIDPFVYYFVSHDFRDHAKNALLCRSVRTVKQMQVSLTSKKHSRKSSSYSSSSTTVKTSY

[2] = target: Proteinase-activated receptor 2 (Homo sapiens) (UniProt P55085); test: Agonist activity at human PAR2 expressed in HEK293T cells assessed as effect on intracellular calcium mobilization by R-SAT assay relative to SLIGRL-NH2; assay type: functional, cell-based; conditions: HEK-293T
[3] = Metabolic stability in human liver microsomes assessed as intrinsic clearance; assay type: ADME, Microsome
[4] = Solubility in presence of 25% Tween; assay type: physicochemical
[5] = Metabolic stability in rat liver microsomes assessed as intrinsic clearance; assay type: ADME, Microsome
Rattus norvegicus [6] = test: Induction of inflammation assessed as incidence of paw edema in intrapaw dosed rat; assay type: functional, organism-based
[7] = target: T2, Proteinase-activated receptor 4 (Homo sapiens) (UniProt Q96RI0); test: Agonist activity at PAR4; assay type: functional
T2 sequence (whole entry): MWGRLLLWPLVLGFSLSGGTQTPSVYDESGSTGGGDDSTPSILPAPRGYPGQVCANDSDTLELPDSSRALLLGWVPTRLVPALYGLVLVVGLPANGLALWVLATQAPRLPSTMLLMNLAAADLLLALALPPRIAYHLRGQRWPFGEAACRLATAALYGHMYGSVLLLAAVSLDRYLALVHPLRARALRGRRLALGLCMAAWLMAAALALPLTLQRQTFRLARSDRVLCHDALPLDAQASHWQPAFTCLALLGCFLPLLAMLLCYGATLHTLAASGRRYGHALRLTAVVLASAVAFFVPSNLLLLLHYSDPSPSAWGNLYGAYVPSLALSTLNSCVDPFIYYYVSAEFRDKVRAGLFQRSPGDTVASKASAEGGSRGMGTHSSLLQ

[8] = target: T3, Proteinase-activated receptor 3 (Homo sapiens) (UniProt O00254); test: Agonist activity at PAR3; assay type: functional
T3 sequence (whole entry): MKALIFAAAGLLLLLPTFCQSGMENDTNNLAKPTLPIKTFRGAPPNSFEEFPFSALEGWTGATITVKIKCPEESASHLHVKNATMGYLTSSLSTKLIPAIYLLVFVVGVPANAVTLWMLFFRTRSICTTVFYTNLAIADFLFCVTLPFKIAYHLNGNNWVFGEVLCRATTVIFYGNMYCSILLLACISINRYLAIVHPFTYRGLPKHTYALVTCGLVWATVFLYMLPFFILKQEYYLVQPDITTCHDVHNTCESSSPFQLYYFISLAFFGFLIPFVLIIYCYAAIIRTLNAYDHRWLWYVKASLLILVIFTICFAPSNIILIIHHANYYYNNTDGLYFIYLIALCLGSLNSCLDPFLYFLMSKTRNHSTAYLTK

[9] = target: Proteinase-activated receptor 2 (Homo sapiens) (UniProt P55085); test: Agonist activity at human PAR2 expressed in HEK293T cells assessed as effect on phosphatidyl inositol hydrolysis; assay type: functional, cell-based; conditions: HEK-293T
Rattus norvegicus [10] = test: Induction nociception assessed as incidence of thermal hyperalgesia in intrapaw dosed rat; assay type: functional, organism-based
[11] = target: T4, Proteinase-activated receptor 1 (Homo sapiens) (UniProt P25116); test: Agonist activity at PAR1; assay type: functional
T4 sequence (whole entry): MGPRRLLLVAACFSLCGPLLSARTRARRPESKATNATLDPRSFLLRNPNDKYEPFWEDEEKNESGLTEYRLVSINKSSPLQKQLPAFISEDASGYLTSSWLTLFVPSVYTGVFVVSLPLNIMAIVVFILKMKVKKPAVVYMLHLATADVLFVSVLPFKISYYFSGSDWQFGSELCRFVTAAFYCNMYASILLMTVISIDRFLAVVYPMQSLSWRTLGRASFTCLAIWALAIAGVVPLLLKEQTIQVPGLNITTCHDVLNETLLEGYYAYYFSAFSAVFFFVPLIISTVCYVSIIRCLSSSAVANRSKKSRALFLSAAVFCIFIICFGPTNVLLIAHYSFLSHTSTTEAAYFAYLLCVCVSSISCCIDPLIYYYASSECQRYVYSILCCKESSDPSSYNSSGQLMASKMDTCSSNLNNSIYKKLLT

| Molecule | EC50 [1] [nM] | Efficacy [2] [%] | also measured |
| --- | --- | --- | --- |
| C/C(=N\NC(=O)[C@@H]1C(=O)NC[C@H]1c1ccccc1)c1cccc(Br)c1 (stereo in doubt; (-)-3) [listing 1 of 2 here] | > 10000 | – | – |
| H-SLIGRL-NH2 | 10000 | 100 | – |
| C/C(=N\NC(=O)[C@@H]1C(=O)NC[C@H]1c1ccccc1)c1cccs1 | 6310 | 30 | – |
| C/C(=N\NC(=O)[C@@H]1C(=O)NC[C@H]1c1ccccc1)c1cccc(Br)c1 (stereo in doubt; (+)-3) [listing 2 of 2 here] | – | 91 | – |
| C/C(=N\NC(=O)[C@@H]1C(=O)NC[C@H]1c1ccccc1)c1cccc(Br)c1 (stereo in doubt; 3) [listing 2 of 2 here] | – | 93 | Activity (Rattus norvegicus [6]): Dose-dependent effect; Activity [7]: inactive; Activity [8]: inactive; Activity [9]: Active; Activity (Rattus norvegicus [10]): Dose-dependent effect; Activity [11]: inactive |
| C/C(=N\NC(=O)[C@@H]1C(=O)NC[C@H]1c1ccccc1)c1ccc(Br)cc1 | 7940 | 32 | – |
| C/C(=N\NC(=O)[C@@H]1C(=O)NC[C@H]1c1ccccc1)c1ccccc1Br | 10000 | 11 | – |
| CC[C@H](C)[C@H](NC(=O)[C@H](CC(C)C)NC(=O)c1ccco1)C(=O)NCC(=O)N[C@@H](CCCNC(=N)N)C(=O)N[C@@H](CC(C)C)C(=O)N[C@@H](CCCN)C(N)=O (2Furoyl-LIGRL[Orn]-NH2) | – | 89 | – |
| C/C(=N\NC(=O)[C@@H]1C(=O)NC[C@H]1c1ccccc1)c1cccc(Br)c1 (stereo in doubt; (-)-3) [listing 2 of 2 here] | – | 10 | – |

More lines, main results first:

| EC50 [1] [nM] | Efficacy [2] [%] | Molecule | also measured |
| --- | --- | --- | --- |
| 31.6 | – | C/C(=N\NC(=O)[C@@H]1C(=O)NC[C@H]1c1ccccc1)c1cccc(Br)c1 (stereo in doubt; (+)-3) [listing 1 of 2 here] | – |
| 6310 | 35 | C/C(=N\N(C)C(=O)[C@@H]1C(=O)NC[C@H]1c1ccccc1)c1cccc(Br)c1 | – |
| 31.6 | – | C/C(=N\NC(=O)[C@@H]1C(=O)NC[C@H]1c1ccccc1)c1cccc(Br)c1 (stereo in doubt; 3) [listing 1 of 2 here] | microsomal CLint [3]: 9 µL/min/mg; solubility [4]: > 2000 µg/mL; microsomal CLint [5]: 37 µL/min/mg |
| 126 | 62 | O=C1NC[C@@H](c2ccccc2)[C@@H]1C(=O)N/N=C1\CCc2ccc(Br)cc21 | – |
| 2510 | 49 | C/C(=N\NC(=O)[C@@H]1C(=O)NC[C@H]1c1ccccc1)c1ccc(Br)s1 | – |
| 25.1 | 82 | C/C(=N\NC(=O)[C@@H]1C(=O)NC[C@H]1c1cccc(Br)c1)c1cccc(Br)c1 | – |
| 50.1 | 72 | CC(C)=CN1C[C@@H](c2ccccc2)[C@H](C(=O)N/N=C(\C)c2cccc(Br)c2)C1=O | – |
| 200 | 81 | C/C(=N\NC(=O)C(NC(=O)c1ccccc1)c1n[nH]c(=O)c2ccccc12)c1cccc(Br)c1 (stereo not given) | Activity (Rattus norvegicus [6]): Dose-dependent effect; Activity [7]: inactive; Activity [8]: inactive; microsomal CLint [3]: 19 µL/min/mg; Activity [9]: Active; Activity (Rattus norvegicus [10]): Dose-dependent effect; Activity [11]: inactive; microsomal CLint [5]: 6 µL/min/mg |
| 25.1 | – | CC[C@H](C)[C@H](NC(=O)[C@H](CC(C)C)NC(=O)c1ccco1)C(=O)NCC(=O)N[C@@H](CCCN=C(N)N)C(=O)N[C@@H](CC(C)C)C(=O)N[C@@H](CCCN)C(N)=O (2Furoyl-LIGRL[Orn]-NH2) | – |
